Test results reported in US20100179158A1, “INHIBITORS OF CYCLIC AMP PHOSPHODIESTERASES” (priority 2007, published 2010).
Entries after “also recorded” stand apart in the source; their conditions may differ.

Tests used:
[1] = target: T1, PDE4D3 (Homo sapiens, UniProt Q08499); test: IC50 on PDE4D3; format: biochemical; conditions: read-out: IC50, PDE 4D3
T1 construct: targets used in the assays are full-length proteins (as opposed to simply the catalytic domain); expressed in transfected cells; host or cells: Schizosaccharomyces pombe, gene integrated at the cgs2 locus
T1 sequence (Q08499 1-673 isoform Q08499-2): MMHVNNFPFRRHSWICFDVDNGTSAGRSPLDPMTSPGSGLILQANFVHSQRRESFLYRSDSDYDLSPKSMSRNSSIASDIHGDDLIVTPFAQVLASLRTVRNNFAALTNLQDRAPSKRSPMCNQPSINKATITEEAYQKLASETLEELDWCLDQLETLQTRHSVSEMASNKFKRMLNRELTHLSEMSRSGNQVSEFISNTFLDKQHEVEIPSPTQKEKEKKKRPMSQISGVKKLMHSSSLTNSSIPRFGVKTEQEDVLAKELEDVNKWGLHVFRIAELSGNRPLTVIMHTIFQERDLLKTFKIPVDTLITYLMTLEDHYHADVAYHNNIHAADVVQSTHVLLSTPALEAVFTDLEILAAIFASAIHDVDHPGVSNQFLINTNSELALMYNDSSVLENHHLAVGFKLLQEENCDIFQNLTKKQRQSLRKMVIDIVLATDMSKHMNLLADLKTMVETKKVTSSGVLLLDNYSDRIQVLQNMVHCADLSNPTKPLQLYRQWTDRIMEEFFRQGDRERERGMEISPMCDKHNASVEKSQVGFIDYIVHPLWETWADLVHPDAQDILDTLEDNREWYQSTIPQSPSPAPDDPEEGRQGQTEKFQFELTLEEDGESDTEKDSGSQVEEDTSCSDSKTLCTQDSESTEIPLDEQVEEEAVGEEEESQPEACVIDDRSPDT

[2] = target: T2, PDE4A1 (Mus musculus, UniProt O89084); test: IC50 on PDE4A1; format: biochemical, murine; conditions: read-out: IC50, PDE 4A1
T2 construct: targets used in the assays are full-length proteins (as opposed to simply the catalytic domain); expressed in transfected cells; host or cells: Schizosaccharomyces pombe, gene integrated at the cgs2 locus
T2 sequence (O89084 1-610 isoform O89084-2): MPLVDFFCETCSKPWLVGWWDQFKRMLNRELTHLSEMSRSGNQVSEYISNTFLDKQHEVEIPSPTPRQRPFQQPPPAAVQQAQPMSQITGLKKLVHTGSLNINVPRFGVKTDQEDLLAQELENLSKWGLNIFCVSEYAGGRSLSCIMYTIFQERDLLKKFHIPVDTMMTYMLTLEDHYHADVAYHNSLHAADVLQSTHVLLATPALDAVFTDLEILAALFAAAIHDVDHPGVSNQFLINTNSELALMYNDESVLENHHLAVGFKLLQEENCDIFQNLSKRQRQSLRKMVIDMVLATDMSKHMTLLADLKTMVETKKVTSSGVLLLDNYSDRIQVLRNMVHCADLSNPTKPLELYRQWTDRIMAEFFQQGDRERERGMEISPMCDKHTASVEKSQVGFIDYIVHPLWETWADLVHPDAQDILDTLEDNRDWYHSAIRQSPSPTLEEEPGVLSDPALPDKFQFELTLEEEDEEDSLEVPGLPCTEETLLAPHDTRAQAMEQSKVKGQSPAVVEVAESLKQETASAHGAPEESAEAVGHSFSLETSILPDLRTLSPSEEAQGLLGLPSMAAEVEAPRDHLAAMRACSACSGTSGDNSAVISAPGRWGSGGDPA

[3] = tested on: PDE4A, PDE4B, PDE4D, PDE7A; test: Overall PDE inhibitor profile from the yeast assays (table footnotes, summary); format: cell-based
Text: PDE inhibitors were identified using methods described herein, such as high throughput drug screens on genetically engineered fission yeast strains that express drug targets (e.g., PDE4A and/or PDE4B, which are anti-inflammatory targets). PDE inhibitors were identified based on their ability to stimulate growth and compounds were identified because they were effective in live cells. In addition, targets used in the assays are full-length proteins (as opposed to simply the catalytic domain) and the assay used included a built-in toxicity test, permeability test and stability test. The inhibitors identified display a very high degree of target specificity. Compounds identified include inhibitors that act on two of three PDE4 family enzymes and inhibitors that act on combinations of PDE4 and PDE7 strains. […] Limited inhibition of PDE4D by a PDE inhibitor is desirable, in view of the fact that inhibition of PDE4D causes emesis and cardiac arrhythmias. Subtype specificity was confirmed by means of cAMP assays.
Cells were pregrown in EMM medium [MP Biomedicals (Solon, OH), 3% glucose, filter-sterilized to avoid carmelization, which would introduce variability into the optical density of the medium] containing from 0 mM to 2.5 mM cAMP (or either 0.5 mM or 1.0 mM cGMP). This was to repress expression of the fbp1-ura4 reporter prior to exposure of cells to 5FOA medium. Cells were grown at 30° C. to exponential phase (approximately 10^7 cells/ml). Cells were collected by centrifugation and resuspended in 5FOA medium, and 25 μl were transferred to 384-well microtiter dishes (untreated, with flat clear bottoms) that had been pre-filled with 25 μl 5FOA medium and pre-pinned with 100 nl of compounds (stock solutions were generally 10 mM). Starting cell concentrations ranged from 0.5×10^5 to 4×10^5 cells/ml depending on the screening strain. […] Other positive control dishes contained 5 mM cAMP in the 5FOA medium for PDEs that lack appropriate control compounds. Cultures were grown for 48 hours at 30° C., sealed in an airtight container with moist paper towels to prevent evaporation. Optical densities (OD600) of cultures were measured using a microplate reader. Bioinformatic analysis of the results to determine composite Z scores was performed as previously described (1, 3).

[4] = target: T3, PDE4A5 (Rattus norvegicus, UniProt P54748); test: cAMP assay in yeast strain expressing PDE4A5; format: cell-based
T3 construct: targets used in the assays are full-length proteins (as opposed to simply the catalytic domain); expressed in transfected cells; host or cells: Schizosaccharomyces pombe, gene integrated at the cgs2 locus
T3 sequence (P54748 1-844): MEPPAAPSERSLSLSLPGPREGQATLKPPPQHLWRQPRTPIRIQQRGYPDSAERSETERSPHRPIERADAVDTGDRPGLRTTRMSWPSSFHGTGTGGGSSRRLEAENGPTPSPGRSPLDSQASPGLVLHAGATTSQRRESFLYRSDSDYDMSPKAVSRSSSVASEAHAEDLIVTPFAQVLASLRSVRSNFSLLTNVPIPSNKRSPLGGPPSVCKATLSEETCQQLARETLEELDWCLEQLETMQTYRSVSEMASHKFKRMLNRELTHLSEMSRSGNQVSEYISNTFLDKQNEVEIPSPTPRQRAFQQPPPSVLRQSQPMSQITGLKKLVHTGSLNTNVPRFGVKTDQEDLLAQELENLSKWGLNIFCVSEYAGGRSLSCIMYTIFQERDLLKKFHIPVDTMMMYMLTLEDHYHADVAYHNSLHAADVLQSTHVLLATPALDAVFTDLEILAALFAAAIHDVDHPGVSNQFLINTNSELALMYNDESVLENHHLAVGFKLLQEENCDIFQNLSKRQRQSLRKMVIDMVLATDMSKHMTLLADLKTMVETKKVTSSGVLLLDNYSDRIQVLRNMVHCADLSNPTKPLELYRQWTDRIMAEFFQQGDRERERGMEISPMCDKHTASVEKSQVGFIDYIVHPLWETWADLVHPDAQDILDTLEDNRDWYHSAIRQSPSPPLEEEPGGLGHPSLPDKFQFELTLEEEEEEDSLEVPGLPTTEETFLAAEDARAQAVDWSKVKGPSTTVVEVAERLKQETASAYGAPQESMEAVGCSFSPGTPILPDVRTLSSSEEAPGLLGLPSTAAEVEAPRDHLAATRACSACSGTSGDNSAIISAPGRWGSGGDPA

[5] = target: T4, PDE4B3 (Mus musculus, UniProt Q8VBU5); test: cAMP assay in yeast strain expressing PDE4B3; format: cell-based, murine
T4 construct: targets used in the assays are full-length proteins (as opposed to simply the catalytic domain); expressed in transfected cells; host or cells: Schizosaccharomyces pombe, gene integrated at the cgs2 locus
T4 sequence (Q8VBU5 1-721): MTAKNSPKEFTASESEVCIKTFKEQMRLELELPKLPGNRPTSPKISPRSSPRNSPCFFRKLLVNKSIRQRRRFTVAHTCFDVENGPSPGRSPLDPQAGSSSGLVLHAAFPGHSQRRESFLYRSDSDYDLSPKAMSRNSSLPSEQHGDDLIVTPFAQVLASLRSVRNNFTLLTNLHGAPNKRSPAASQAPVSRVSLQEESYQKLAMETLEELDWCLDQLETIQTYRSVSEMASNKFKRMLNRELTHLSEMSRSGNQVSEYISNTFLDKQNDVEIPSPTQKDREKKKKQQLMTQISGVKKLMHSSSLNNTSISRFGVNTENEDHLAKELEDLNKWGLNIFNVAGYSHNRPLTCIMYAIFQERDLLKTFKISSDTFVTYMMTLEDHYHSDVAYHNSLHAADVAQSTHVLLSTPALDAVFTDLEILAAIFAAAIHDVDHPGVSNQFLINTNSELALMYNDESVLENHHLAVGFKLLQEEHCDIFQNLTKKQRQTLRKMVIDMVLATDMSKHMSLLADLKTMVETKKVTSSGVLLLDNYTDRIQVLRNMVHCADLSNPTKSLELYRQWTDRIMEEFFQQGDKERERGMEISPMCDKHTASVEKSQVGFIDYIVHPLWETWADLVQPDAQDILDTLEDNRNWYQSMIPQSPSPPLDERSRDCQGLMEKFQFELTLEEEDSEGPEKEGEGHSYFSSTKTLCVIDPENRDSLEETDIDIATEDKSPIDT

[6] = target: T5, PDE4D2 (Homo sapiens, UniProt Q08499); test: cAMP assay in yeast strain expressing PDE4D2; format: cell-based
T5 construct: targets used in the assays are full-length proteins (as opposed to simply the catalytic domain); expressed in transfected cells; host or cells: Schizosaccharomyces pombe
T5 sequence (Q08499 303-809): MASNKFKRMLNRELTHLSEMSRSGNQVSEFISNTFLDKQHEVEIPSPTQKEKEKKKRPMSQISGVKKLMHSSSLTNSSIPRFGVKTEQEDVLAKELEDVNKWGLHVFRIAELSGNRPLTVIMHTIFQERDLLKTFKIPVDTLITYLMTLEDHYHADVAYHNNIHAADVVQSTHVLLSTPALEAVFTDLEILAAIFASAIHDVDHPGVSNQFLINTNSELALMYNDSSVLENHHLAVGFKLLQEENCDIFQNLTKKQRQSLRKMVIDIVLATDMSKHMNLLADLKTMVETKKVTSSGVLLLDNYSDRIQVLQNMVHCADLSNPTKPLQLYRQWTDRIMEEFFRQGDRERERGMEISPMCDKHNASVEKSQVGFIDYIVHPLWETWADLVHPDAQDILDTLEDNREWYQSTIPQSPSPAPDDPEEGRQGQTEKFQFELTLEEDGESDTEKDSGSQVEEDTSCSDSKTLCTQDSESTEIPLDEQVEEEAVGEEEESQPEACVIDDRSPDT

[7] = target: T1, PDE4D3; test: cAMP assay in yeast strain expressing PDE4D3; format: cell-based
[8] = target: T2, PDE4A1; test: cAMP assay in yeast strain expressing PDE4A1; format: cell-based, murine

Cc1cc(C)nc(SCCS(=O)(=O)c2ccc(C(C)(C)C)cc2)n1 [Compound 26]
IC50 [1]: 500 nM
IC50 [2]: 500 nM
PDE inhibitor profile in words (table footnote / summary) [3]: effective PDE4A/4B inhibitor that exhibits limited/essentially no inhibition of PDE4D; also recorded: effective PDE4A/4B inhibitor; also recorded: little or no inhibition of PDE4D; also recorded: (1) Strong PDE4A, 4B inhibitor
cAMP Response (% rolipram), PDE 4A5 [4]: 57.30 % rolipram
cAMP Response (% rolipram), PDE 4B3 [5]: 92.00 % rolipram
cAMP Response (% rolipram), PDE 4D2 [6]: ND ND ND 17.00 ND % rolipram
cAMP Response (% rolipram), PDE 4D3 [7]: 14.00 % rolipram
cAMP Response (% rolipram), PDE 4A1 [8]: 96.00 % rolipram
